Laboratory results: ChEMBL document CHEMBL1201862, “PubChem BioAssay data set” (2004)
Calls of active or inactive are those of the source. No rule for the calls is given here.

What was measured:
Type in all cases: functional
[1] = molecular target: Dual specificity protein kinase CLK2 (Homo sapiens, UniProt P49760)
[2] = molecular target: Tyrosine-protein kinase JAK2 (Homo sapiens, UniProt O60674);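 also: JAK2 tested as one member of a kinase panel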
[3] = molecular target: Dual specificity tyrosine-phosphorylation-regulated kinase 1A (Homo sapiens, UniProt Q13627);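 also: measured against DYRK1A as one member of a broad kinome profiling panel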
[4] = molecular target: Mitogen-activated protein kinase 8 (Homo sapiens, UniProt P45983);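 also: value comes from one member of a kinome-wide kinase profiling panel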
[5] = molecular target: Dual specificity tyrosine-phosphorylation-regulated kinase 1B (Homo sapiens, UniProt Q9Y463); experiment: Navigating the Kinome. Panel member name: DYRK1B
[6] = molecular target: Mitogen-activated protein kinase 14 (Homo sapiens, UniProt Q16539);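 also: part of a kinome-wide panel, MAPK14 entry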
[7] = molecular target: Tyrosine-protein kinase Fyn (Homo sapiens, UniProt P06241)
[8] = molecular target: T1, Receptor-type tyrosine-protein kinase FLT3 (Homo sapiens, UniProt P36888);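 also: FLT3 was tested as one member of a kinome-wide kinase panel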
T1 sequence (P36888 whole entry): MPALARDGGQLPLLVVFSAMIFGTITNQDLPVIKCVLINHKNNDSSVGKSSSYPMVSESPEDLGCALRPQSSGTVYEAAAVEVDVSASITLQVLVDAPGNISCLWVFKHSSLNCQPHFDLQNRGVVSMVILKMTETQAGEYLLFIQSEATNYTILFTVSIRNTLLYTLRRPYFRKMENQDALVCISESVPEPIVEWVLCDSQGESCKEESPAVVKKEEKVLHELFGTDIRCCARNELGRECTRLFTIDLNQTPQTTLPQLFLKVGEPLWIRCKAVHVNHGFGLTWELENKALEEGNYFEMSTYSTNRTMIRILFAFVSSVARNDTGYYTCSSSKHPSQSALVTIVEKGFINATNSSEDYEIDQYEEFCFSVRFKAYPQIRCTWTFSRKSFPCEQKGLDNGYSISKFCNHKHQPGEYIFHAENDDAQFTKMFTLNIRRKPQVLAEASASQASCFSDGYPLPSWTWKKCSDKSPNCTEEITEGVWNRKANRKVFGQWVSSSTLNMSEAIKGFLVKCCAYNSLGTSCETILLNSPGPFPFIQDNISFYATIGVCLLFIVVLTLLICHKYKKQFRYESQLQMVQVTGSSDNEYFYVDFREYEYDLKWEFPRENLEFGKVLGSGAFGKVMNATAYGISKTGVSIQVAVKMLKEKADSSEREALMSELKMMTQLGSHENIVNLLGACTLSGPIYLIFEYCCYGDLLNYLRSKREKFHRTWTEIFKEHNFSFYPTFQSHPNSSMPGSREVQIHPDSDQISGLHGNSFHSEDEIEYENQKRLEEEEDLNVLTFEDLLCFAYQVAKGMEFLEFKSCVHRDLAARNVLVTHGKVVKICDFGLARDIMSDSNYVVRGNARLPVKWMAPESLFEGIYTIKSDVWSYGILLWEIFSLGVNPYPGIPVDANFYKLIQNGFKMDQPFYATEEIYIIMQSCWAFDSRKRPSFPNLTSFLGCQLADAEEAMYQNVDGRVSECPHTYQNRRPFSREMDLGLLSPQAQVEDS

[9] = molecular target: Serine/threonine-protein kinase PAK 4 (Homo sapiens, UniProt O96013);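 also: value obtained within a kinome profiling panel in which PAK4 was one of the panel members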
[10] = molecular target: 5'-AMP-activated protein kinase catalytic subunit alpha-1 (Homo sapiens, UniProt Q13131)
[11] = molecular target: Glycogen synthase kinase-3 alpha (Homo sapiens, UniProt P49840);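 also: GSK3A result taken from a broad kinome-wide kinase panel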
[12] = molecular target: Mitogen-activated protein kinase kinase kinase kinase 4 (Homo sapiens, UniProt O95819)
[13] = molecular target: Rho-associated protein kinase 1 (Homo sapiens, UniProt Q13464);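 also: measured within a broad kinome-wide panel profiling many kinases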
Activin receptor type-1 = molecular target: T2, Activin receptor type-1 (Homo sapiens, UniProt Q04771); experiment: Navigating the Kinome. Panel member name: ACVR1
T2 sequence (Q04771 whole entry): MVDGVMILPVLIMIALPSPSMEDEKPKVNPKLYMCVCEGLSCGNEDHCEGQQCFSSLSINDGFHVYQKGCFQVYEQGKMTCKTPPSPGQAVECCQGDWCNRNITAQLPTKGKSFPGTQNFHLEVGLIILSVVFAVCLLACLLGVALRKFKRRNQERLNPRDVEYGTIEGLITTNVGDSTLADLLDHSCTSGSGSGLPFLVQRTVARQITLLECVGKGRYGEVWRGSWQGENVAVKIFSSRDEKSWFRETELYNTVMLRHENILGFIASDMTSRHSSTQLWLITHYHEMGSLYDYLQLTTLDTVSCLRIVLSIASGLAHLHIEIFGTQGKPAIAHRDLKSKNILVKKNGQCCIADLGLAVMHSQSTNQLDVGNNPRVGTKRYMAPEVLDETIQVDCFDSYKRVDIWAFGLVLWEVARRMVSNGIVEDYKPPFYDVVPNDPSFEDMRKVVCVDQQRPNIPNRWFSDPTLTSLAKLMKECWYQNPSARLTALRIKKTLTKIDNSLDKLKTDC

Chain of Serine/threonine-protein kinase PAK 4 (O96013 whole entry): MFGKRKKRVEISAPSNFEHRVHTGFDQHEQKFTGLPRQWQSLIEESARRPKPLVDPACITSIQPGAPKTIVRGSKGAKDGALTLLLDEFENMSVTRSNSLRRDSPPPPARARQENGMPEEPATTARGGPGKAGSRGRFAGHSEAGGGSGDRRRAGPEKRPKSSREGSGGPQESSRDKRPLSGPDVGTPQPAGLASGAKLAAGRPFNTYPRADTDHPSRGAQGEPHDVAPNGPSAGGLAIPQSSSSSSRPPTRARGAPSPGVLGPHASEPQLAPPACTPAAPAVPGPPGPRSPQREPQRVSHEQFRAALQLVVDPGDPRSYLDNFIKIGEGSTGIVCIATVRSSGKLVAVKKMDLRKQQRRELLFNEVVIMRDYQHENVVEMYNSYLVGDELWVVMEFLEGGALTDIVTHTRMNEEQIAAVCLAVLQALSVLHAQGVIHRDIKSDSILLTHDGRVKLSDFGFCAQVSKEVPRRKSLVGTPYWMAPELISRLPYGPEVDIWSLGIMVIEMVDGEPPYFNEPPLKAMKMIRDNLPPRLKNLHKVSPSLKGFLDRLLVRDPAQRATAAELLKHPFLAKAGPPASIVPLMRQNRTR
Chain of Dual specificity protein kinase CLK2 (P49760 whole entry): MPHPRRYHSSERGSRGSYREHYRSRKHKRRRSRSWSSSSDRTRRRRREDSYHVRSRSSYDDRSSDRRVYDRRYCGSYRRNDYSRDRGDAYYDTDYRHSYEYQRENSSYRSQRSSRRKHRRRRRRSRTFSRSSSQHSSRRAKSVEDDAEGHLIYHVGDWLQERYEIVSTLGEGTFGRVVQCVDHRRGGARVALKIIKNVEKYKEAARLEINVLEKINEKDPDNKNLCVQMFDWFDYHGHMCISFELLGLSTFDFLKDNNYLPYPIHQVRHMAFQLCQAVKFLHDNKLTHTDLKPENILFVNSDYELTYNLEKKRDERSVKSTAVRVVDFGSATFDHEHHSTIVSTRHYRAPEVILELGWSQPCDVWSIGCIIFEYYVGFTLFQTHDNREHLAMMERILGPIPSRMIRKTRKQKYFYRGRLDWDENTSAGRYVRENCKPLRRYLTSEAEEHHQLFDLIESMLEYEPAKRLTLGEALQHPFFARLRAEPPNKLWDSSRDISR
Chain of Glycogen synthase kinase-3 alpha (P49840 whole entry): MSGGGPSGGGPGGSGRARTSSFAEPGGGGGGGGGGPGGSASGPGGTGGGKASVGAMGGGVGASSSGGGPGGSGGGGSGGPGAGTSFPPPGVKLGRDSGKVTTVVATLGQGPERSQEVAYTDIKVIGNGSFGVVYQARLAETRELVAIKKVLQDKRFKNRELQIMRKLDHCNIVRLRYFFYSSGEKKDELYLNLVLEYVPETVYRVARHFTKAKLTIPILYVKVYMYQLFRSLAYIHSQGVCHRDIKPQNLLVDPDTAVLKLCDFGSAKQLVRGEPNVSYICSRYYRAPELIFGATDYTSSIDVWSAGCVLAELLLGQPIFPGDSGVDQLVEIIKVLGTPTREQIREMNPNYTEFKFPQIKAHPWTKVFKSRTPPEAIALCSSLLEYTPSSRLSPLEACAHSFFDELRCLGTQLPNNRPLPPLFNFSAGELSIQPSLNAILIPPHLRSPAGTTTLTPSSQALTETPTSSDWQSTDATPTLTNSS
Chain of Tyrosine-protein kinase JAK2 (O60674 whole entry): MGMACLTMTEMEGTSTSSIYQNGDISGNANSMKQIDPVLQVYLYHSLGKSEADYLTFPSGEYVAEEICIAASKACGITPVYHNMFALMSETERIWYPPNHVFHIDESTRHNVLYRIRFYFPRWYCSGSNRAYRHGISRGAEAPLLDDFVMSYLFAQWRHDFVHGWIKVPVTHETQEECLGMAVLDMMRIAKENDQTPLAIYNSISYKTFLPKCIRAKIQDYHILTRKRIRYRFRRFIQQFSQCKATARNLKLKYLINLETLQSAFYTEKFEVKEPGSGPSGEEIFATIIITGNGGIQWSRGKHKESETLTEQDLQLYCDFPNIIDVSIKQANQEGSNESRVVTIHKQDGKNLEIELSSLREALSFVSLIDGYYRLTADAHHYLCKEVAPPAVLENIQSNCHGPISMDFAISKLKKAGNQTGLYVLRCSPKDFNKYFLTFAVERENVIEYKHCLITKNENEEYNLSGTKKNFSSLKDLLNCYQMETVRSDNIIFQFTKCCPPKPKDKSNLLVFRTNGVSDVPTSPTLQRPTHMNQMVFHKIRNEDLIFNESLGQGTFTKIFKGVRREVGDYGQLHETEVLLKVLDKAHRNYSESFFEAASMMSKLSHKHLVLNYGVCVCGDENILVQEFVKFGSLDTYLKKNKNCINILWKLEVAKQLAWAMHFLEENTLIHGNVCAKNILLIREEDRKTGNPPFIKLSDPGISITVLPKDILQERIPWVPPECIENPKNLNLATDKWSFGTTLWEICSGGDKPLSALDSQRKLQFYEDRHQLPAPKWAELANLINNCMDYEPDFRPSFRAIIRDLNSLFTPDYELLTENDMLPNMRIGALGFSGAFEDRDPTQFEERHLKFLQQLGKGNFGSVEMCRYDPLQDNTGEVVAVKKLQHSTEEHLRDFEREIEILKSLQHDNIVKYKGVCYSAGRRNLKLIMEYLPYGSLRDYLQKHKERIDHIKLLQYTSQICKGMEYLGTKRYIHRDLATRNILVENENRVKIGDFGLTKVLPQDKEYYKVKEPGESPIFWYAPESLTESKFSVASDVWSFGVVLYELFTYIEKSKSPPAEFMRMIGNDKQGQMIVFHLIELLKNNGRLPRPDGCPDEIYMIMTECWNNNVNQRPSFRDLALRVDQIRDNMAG
Chain of Dual specificity tyrosine-phosphorylation-regulated kinase 1B (Q9Y463 whole entry): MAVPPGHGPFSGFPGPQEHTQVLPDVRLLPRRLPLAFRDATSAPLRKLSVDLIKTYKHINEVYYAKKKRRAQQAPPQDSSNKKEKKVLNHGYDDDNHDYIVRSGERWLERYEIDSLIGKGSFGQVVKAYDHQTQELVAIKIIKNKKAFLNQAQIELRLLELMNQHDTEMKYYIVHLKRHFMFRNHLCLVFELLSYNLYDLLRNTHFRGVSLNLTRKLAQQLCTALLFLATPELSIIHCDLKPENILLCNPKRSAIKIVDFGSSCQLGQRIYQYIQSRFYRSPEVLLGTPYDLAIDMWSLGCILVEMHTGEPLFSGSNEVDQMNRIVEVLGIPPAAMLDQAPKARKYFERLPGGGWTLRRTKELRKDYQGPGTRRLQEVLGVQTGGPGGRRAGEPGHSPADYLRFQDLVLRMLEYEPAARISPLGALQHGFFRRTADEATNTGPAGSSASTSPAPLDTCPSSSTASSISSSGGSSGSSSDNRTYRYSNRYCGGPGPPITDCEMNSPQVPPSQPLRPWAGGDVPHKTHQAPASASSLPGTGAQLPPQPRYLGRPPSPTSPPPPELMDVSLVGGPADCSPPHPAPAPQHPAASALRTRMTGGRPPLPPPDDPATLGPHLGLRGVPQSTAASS
Chain of 5'-AMP-activated protein kinase catalytic subunit alpha-1 (Q13131 whole entry): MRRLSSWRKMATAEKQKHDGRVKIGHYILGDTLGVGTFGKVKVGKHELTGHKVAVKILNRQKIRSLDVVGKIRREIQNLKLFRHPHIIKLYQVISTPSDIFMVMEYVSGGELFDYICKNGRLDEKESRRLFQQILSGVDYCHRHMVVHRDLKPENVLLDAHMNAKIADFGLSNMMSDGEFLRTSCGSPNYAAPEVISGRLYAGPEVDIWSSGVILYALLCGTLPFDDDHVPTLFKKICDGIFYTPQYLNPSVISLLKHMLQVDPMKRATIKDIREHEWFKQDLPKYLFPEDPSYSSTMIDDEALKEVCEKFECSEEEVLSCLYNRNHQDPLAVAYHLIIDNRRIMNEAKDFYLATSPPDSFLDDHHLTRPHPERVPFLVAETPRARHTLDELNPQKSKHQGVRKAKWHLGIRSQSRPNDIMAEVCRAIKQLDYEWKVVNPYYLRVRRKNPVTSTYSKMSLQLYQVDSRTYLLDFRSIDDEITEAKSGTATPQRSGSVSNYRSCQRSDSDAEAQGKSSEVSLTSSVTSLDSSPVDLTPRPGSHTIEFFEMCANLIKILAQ
Chain of Mitogen-activated protein kinase 8 (P45983 whole entry): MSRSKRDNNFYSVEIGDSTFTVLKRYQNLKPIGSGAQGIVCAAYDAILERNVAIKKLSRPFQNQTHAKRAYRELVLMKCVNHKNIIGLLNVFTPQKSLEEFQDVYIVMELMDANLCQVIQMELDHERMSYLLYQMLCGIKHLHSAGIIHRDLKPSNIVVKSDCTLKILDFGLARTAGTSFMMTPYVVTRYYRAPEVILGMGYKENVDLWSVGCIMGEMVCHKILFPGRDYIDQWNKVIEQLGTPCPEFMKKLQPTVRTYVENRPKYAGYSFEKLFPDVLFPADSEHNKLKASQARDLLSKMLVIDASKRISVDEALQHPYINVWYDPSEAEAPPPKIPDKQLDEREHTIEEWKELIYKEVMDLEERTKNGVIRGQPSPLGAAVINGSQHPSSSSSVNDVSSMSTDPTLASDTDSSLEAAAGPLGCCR
Chain of Mitogen-activated protein kinase 14 (Q16539 whole entry): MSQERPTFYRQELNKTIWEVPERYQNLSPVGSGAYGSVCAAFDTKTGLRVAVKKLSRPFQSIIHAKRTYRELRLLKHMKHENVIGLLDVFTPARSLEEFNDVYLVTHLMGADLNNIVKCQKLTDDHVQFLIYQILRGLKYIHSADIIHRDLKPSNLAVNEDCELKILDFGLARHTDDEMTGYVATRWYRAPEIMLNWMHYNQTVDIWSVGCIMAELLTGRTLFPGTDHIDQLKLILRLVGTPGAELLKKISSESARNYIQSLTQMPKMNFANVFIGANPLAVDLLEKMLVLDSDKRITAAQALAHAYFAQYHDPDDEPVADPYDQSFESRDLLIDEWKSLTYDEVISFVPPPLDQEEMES

SMILES	Ki [1]	Ki [2]	Ki [3]	Ki [4]	Ki [5]	Ki [6]	Ki [7]	Ki [8]	Ki [9]	Ki [10]	Ki [11]	Ki [12]	Ki [13]	Ki (Activin receptor type-1)	also measured
OC1CCC(Nc2nc(Cl)cc(-c3c[nH]c4ncccc34)n2)CC1 (stereo not drawn)	7.94 nM (active)	200 nM (active)	> 2 nM (inactive)	251 nM (active)	2.51 nM (active)	> 3980 nM (inactive)	> 794 nM (inactive)	12.6 nM (active)	25.1 nM (active)	126 nM (active)	63.1 nM (active)	> 3.16 nM (inactive)	7.94 nM (active)	1260 nM (active)	pKi [1]: 8.1; pKi [2]: 6.7; pKi [4]: 6.6; pKi [5]: 8.6; pKi [8]: 7.9; pKi [9]: 7.6; pKi [10]: 6.9; pKi [11]: 7.2; pKi [13]: 8.1; pKi (Activin receptor type-1): 5.9
COc1cccc(CNC(=O)c2cnc(-c3ccncc3)nc2)c1	> 3980 nM (inactive)	> 2510 nM (inactive)	> 2000 nM (inactive)	> 5010 nM (inactive)	> 2510 nM (inactive)	> 3980 nM (inactive)	> 6310 nM (inactive)	> 3160 nM (inactive)	> 5010 nM (inactive)	> 3160 nM (inactive)	> 3980 nM (inactive)	> 5010 nM (inactive)	25.1 nM (active)	> 3980 nM (inactive)	
